Results: the OPERA property sets (Mansouri et al. 2018)

Details: not given

| SMILES | log10 vapour pressure (mmHg) | melting point [°C] | boiling point [°C] | ready biodegradability | log10 Henry constant (atm·m³/mol) | log10 Koa | log10 Koc (L/kg) | log10 biodegradation half-life (days) |
| --- | --- | --- | --- | --- | --- | --- | --- | --- |
| CC1(C)C(C(=O)OC(C#N)c2cccc(Oc3ccccc3)c2)C1(C)C (configuration not stated) | -5.26 | 47 | – | – | – | – | – | – |
| CN(CCCN)CCCN | – | – | 232 | – | – | – | – | – |
| C=C(C)C(C)(C)C | 2.05 | -110 | 77.9 | – | – | – | – | – |
| CC(C)C(Br)C(=O)NC(N)=O (configuration not stated) | – | 154 | – | – | – | – | – | – |
| NC(=O)C[C@H](O)C(=O)O | – | 148 | – | – | – | – | – | – |
| OC[C@H]1O[C@H]1c1ccccc1 | – | 26.5 | – | – | – | – | – | – |
| OCc1ccccc1O | – | 87 | – | not readily biodegradable | – | – | – | – |
| C=CCCCCO | – | – | – | readily biodegradable | – | – | – | – |
| Fc1nc(F)c(Cl)c(F)n1 | – | – | 114 | – | – | – | – | – |
| c1ccc(Nc2cccc3ccccc23)cc1 | – | 62 | – | not readily biodegradable | – | – | – | – |
| C=C(C)C(=O)OCC(C)C | 0.56 | – | 155 | – | – | – | – | – |
| COc1cc2c(c(O)c1OC)C(C)N(C)CC2 (configuration not stated) | – | 112 | – | – | – | – | – | – |
| COC(=O)C1(O)c2ccccc2-c2ccc(Cl)cc21 (configuration not stated) | – | 139 | – | – | – | – | – | – |
| CCCCCCCCOC(=O)CCCCC | – | -28 | 275 | – | – | – | – | – |
| Cc1cc(N)c2ccccc2n1 | – | 169 | 333 | – | – | – | – | – |
| Cc1ccc(CCc2ccc(C)cc2)cc1 | – | 85 | – | – | – | – | – | – |
| CC1(C)C2C=C[C@]1(C)CC2 | – | 113 | 146 | – | – | – | – | – |
| CC(O)(CCO)CCO | – | – | – | not readily biodegradable | – | – | – | – |
| CCC(CC)COC(C)=O | – | – | 162 | – | – | – | – | – |
| c1ccc(CN(CC2=NCCN2)c2ccccc2)cc1 | – | 120 | – | – | – | – | – | – |
| CCCC(C)C(C)=O (configuration not stated) | – | – | 144 | – | – | – | – | – |
| Clc1ccccc1-c1ccccc1Cl | -2.56 | 61.5 | – | not readily biodegradable | -3.64 | 7.18 | 3.92 | – |
| CCO[Si](C)(C)C | 2.06 | – | 76 | – | – | – | – | – |
| CCCCOC(C)C | – | – | 109 | – | – | – | – | – |

| SMILES | log10 vapour pressure (mmHg) | melting point [°C] | boiling point [°C] | ready biodegradability | log10 Henry constant (atm·m³/mol) | log10 Koa | log10 Koc (L/kg) | log10 biodegradation half-life (days) |
| --- | --- | --- | --- | --- | --- | --- | --- | --- |
| CCC(Br)C(C)Br (configuration not stated) | – | -56 | 178 | – | – | – | – | – |
| CCC(C(=O)O)c1ccc(CC(C)C)cc1 (configuration not stated) | – | 52 | – | – | – | – | – | – |
| N#Cc1ccc(C#N)cc1 | – | 224 | – | not readily biodegradable | – | – | – | – |
| O=Cc1c(F)c(F)c(F)c(F)c1F | – | 20 | 167 | – | – | – | – | – |
| Clc1ccc2c(Cl)ccc(Cl)c2c1 | – | – | – | – | – | 7.27 | – | – |
| CCCCNC(=O)c1ccc(Cl)cc1O | – | 91.5 | – | – | – | – | – | – |
| C1N2CN3CN1CN(C2)C3 | -2.4 | – | – | readily biodegradable | – | – | – | – |
| CS(=O)(=O)O.Cc1ccc(N(CC2=NCCN2)c2cccc(O)c2)cc1 | – | 181 | – | – | – | – | – | – |
| Clc1ccc2ccc(Cl)c(Cl)c2c1Cl | – | – | – | – | – | 8.65 | – | – |
| CC1=CC(=O)CC(C)(C)[C@@]1(O)/C=C/C(C)=C\C(=O)O | – | 160 | – | – | – | – | – | – |
| CCCCC(CC)CNCC(CC)CCCC (configuration not stated) | -2 | -60 | 281 | – | – | – | – | – |
| CCN(CCO)c1ccccc1 | – | 37 | 268 | – | – | – | – | – |
| OCc1ccc(CO)cc1 | – | 118 | – | – | – | – | – | – |
| Nc1ccc(/C=C/c2ccc(N)cc2S(=O)(=O)O)c(S(=O)(=O)O)c1 | – | – | – | not readily biodegradable | – | – | – | – |
| Nc1nc(=O)cc(Cl)[nH]1 | – | 262 | – | – | – | – | – | – |
| CC1=C(/C=C/C(C)=C/C=C/C(C)=C/C=O)C(C)(C)CC=C1 | – | 77.5 | – | – | – | – | – | – |
| CCCCCCCCSCCO | -3.23 | 0 | – | – | – | – | – | – |
| Oc1cccc(Cl)c1O | – | 48.5 | – | – | – | – | – | – |
| O=Cc1ccc2ccccc2n1 | – | 71 | – | – | – | – | – | – |
| O=[N+]([O-])c1cc(Cl)c(Cl)c(Cl)c1 | – | 72.5 | – | – | – | – | – | – |
| COC(=O)CCC(C)=O | – | – | 196 | – | – | – | – | – |
| CCCCc1c(C)nc(NCC)nc1OS(=O)(=O)N(C)C | -6.12 | 50.5 | – | – | – | – | – | – |
| CCCCC/C=C\C/C=C\CCCCCCCC(=O)O | -6.06 | -8.5 | 365 | – | – | – | – | – |
| CC(C)(C)CC(C)(C)C | 1.3 | -66.5 | 122 | – | – | – | – | – |

| SMILES | log10 vapour pressure (mmHg) | melting point [°C] | boiling point [°C] | ready biodegradability | log10 Henry constant (atm·m³/mol) | log10 Koa | log10 Koc (L/kg) | log10 biodegradation half-life (days) |
| --- | --- | --- | --- | --- | --- | --- | --- | --- |
| Cc1cc(N)ncn1 | – | 197 | – | – | – | – | – | – |
| CCCCCC[C@H](C)I | 0.136 | – | 210 | – | – | – | – | – |
| CC(C)(C)CO | 1.2 | 52.5 | 114 | – | – | – | – | – |
| COC(=O)C(C)Oc1ccc(Oc2ccc(Cl)cc2Cl)cc1 (configuration not stated) | -5.46 | 40 | – | readily biodegradable | – | – | 4.2 | – |
| CCCCCCCC/C=C\CCCCCCCC(=O)OCCCC | – | -26.5 | – | – | – | – | – | – |
| Cc1ncc(CO)c(C=O)c1O | – | 165 | – | readily biodegradable | – | – | – | – |
| CCOC(C)C | – | – | 54.1 | – | – | – | – | – |
| C1COCCN1 | 1 | -4.9 | 128 | not readily biodegradable | – | – | – | – |
| CCCCCCCCCCCCCCCCCCCCCCCCCCCCCCCCC | -10.4 | 72 | – | – | – | – | – | 2.56 |
| C/C=C/C=O | 1.48 | -76.2 | 103 | – | -4.84 | – | – | – |
| CCSCC[C@H](N)C(=O)O | – | 195 | – | – | – | – | – | – |
| C=CCN(CC=C)CC=C | 0.561 | – | 156 | not readily biodegradable | – | – | – | – |
| Cc1nn(C)c(OCC(=O)c2ccccc2)c1C(=O)c1ccc(Cl)cc1Cl | -6.44 | 112 | – | – | – | – | – | – |
| C1CN(SSN2CCOCC2)CCO1 | – | 124 | – | not readily biodegradable | – | – | – | – |
| CCOC(=O)COC(=O)c1ccccc1C(=O)OCC | – | – | – | – | – | – | 2.54 | – |
| CCCCCCCCC(=O)OCCCC | -1.67 | -38 | – | – | – | – | – | – |
| Cc1c(Cl)cccc1[N+](=O)[O-] | – | 37.8 | 238 | – | – | – | – | – |
| CC1(C)C(C=C(Cl)Cl)C1C(=O)OC(C#N)c1ccc(F)c(Oc2ccccc2)c1 (configuration not stated) | -9.82 | 60 | – | – | – | – | 5 | – |
| CC(C)C(=O)c1ccccc1 | – | -1.3 | 220 | – | – | – | – | – |
| CCCCC(=O)c1ccc(C)cc1 | – | -2 | 256 | – | – | – | – | – |
| COc1cc(C=CC(=O)O)ccc1O | – | – | – | readily biodegradable | – | – | – | – |
| COc1ccccn1 | – | – | 142 | – | – | – | – | – |
| O=C(O)CC(O)(CC(=O)O)C(=O)O | -7.78 | 153 | – | readily biodegradable | – | – | – | – |
| CCCC(=O)OC(=O)CCC | -0.548 | -75 | 200 | – | – | – | – | – |

| SMILES | log10 vapour pressure (mmHg) | melting point [°C] | boiling point [°C] | ready biodegradability | log10 Henry constant (atm·m³/mol) | log10 Koa | log10 Koc (L/kg) | log10 biodegradation half-life (days) |
| --- | --- | --- | --- | --- | --- | --- | --- | --- |
| CC(=O)OO[N+](=O)[O-] | – | – | 106 | – | -3.56 | – | – | – |
| CCC(=O)c1ccc(Br)cc1 | – | 48 | – | – | – | – | – | – |
| Cc1ccc(CN)cc1 | – | 12.5 | 195 | – | – | – | – | – |
| O=C(O)[C@@]1(O)CC(O)[C@H](O)[C@H](O)C1 (some centres not stated) | – | 162 | – | – | – | – | – | – |
| C=C=CC | 3.1 | -136 | 10.9 | – | – | – | – | – |
| CNC(=O)ON=CC(C)(C)SC | -4.46 | 99 | – | – | – | – | 1.5 | – |
| Clc1ncccn1 | – | 67 | – | – | – | – | – | – |
| CCN(O)CC | 0.526 | 10 | 133 | not readily biodegradable | – | – | – | – |
| CC(=O)OC[C@]12C[C@H](OC(=O)CC(C)C)C(C)=C[C@H]1O[C@@H]1[C@H](O)[C@@H](OC(C)=O)[C@@]2(C)[C@]12CO2 | – | 152 | – | – | – | – | – | – |
| CC(C)CCC(=O)c1ccoc1 | – | – | 196 | – | – | – | – | – |
| CCCCCCCC/C=C\CCCCCCCCCCCC(N)=O | – | 77.5 | – | readily biodegradable | – | – | – | – |
| c1ccc2cc(Oc3ccc4ccccc4c3)ccc2c1 | – | 105 | – | – | – | – | – | – |
| CC(C)(C)C1=CC(=O)C=C(C(C)(C)C)C1=O | – | 66 | – | – | – | – | – | – |
| C#CC(C)(C)NC(=O)c1cc(Cl)cc(Cl)c1 | -6.36 | 155 | – | – | – | – | 2.31 | – |
| CN1C(=O)CN=C(c2ccccc2)c2cc([N+](=O)[O-])ccc21 | – | 82 | – | – | – | – | – | – |
| CC1(C)CCCC(O)C1 (configuration not stated) | – | 11.5 | 185 | – | – | – | – | – |
| C[Si](Cl)(Cl)C(Cl)Cl | – | – | 149 | – | – | – | – | – |
| CO[C@H]1O[C@H](CO)[C@@H](O)[C@H](O)[C@H]1O | – | 168 | – | – | – | – | – | – |
| CCN(CC)C(=O)C1CN2CCc3cc(OC)c(OC)cc3C2CC1OC(C)=O (configuration not stated) | – | 131 | – | – | – | – | – | – |
| CC(C)(C)c1ccc(O)c(N)c1 | – | 161 | – | – | – | – | – | – |
| CN1CCCC1 | 2 | – | 81 | – | -4.52 | 3.64 | – | – |
| COP(=S)(OC)Oc1ccc(S(=O)(=O)N(C)C)cc1 | – | 53 | – | readily biodegradable | – | – | – | – |

Same assay, conditions: fish

| SMILES | log10 BCF | log10 biotransformation half-life (days) |
| --- | --- | --- |
| c1ccc(Nc2cccc3ccccc23)cc1 | 3.23 | – |
| N#Cc1ccc(C#N)cc1 | 0.3 | -0.81 |
| C1COCCN1 | 0.45 | – |
| C=CCN(CC=C)CC=C | 0.55 | – |
| Cc1c(Cl)cccc1[N+](=O)[O-] | 1.99 | – |
| Brc1cc(Br)c(Br)c(Oc2c(Br)c(Br)c(Br)c(Br)c2Br)c1Br | 5.57 | – |
| CC12CCCC1C1CCC3CCCCC3(C)C1CC2 (configuration not stated) | – | 1.67 |
| Clc1cccc(-c2c(Cl)cccc2Cl)c1Cl | – | 2.18 |
